Test results reported in PubChem BioAssay (NCI).
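Interpolation was linear, between the two tested concentrations surrounding the appropriate level; five concentrations were tested over 48 hours in 96-well plates. Here, GI50 denotes the concentration required for 50% inhibition of growth. Definition used: TGI = concentration required for complete inhibition of growth.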

How the values were obtained:
Experiment in all cases: inhibition of tumour cell growth, NCI panel, 48 h
COLO 205 colon = system: COLO 205 colon
HCC-2998 colon = system: HCC-2998 colon
HOP-92 NSCLC = system: HOP-92 NSCLC
M14 melanoma = system: M14 melanoma
OVCAR-3 ovarian = system: OVCAR-3 ovarian
SK-MEL-28 melanoma = system: SK-MEL-28 melanoma
SN12C renal = system: SN12C renal
SNB-75 CNS = system: SNB-75 CNS
SW-620 colon = system: SW-620 colon
U251 CNS = system: U251 CNS

Row | Structure (SMILES) | TGI (COLO 205 colon) | TGI (HCC-2998 colon) | TGI (HOP-92 NSCLC) | TGI (M14 melanoma) | TGI (OVCAR-3 ovarian) | TGI (SK-MEL-28 melanoma) | TGI (SN12C renal) | TGI (SNB-75 CNS) | TGI (SW-620 colon) | TGI (U251 CNS) | GI50 (COLO 205 colon) | GI50 (HCC-2998 colon) | GI50 (HOP-92 NSCLC) | GI50 (M14 melanoma) | GI50 (OVCAR-3 ovarian) | GI50 (SK-MEL-28 melanoma) | GI50 (SN12C renal) | GI50 (SNB-75 CNS) | GI50 (SW-620 colon) | GI50 (U251 CNS)
1 | COc1cc2c(c(OC)c1OC)-c1ccc(SC)c(=O)cc1[C@@H](NC(=O)C(F)(F)F)CC2 | < 0.0631 µM | > 71.3 µM | 0.105 µM | 42.5 µM | 1.3 µM | 17.8 µM | 16.5 µM | 6.29 µM | > 100 µM | 56.3 µM |  |  |  |  |  |  |  |  |  | 
2 | [N-]=[N+]=NCCCn1c2c(c3ccc([N+](=O)[O-])cc3c1=O)C(=O)c1cc(-c3ccccc3)ccc1-2 | > 100 µM | > 100 µM | > 100 µM | > 100 µM | > 100 µM | > 100 µM | > 100 µM | > 100 µM | > 100 µM | > 100 µM | > 100 µM | > 100 µM | > 100 µM | > 100 µM | > 100 µM | > 100 µM | > 100 µM | 43.3 µM | > 100 µM | > 100 µM
3 | CS(=O)(=O)c1cccc(Nc2ncc3cc(-c4ccccc4Cl)ccc3n2)c1 | 3.13 µM | > 33.3 µM | 7.56 µM | > 33.3 µM | > 33.3 µM | > 33.3 µM | > 33.3 µM | 2.3 µM | > 33.3 µM | > 33.3 µM | 1.19 µM | 2.8 µM | 1.3 µM | 1.15 µM | 1.52 µM | 1.77 µM | 1.12 µM | 0.507 µM | 1.78 µM | 1.68 µM
4 | O=C(N/C(=C\c1ccccc1O)c1nc2ccccc2[nH]1)c1ccccc1 | > 100 µM | > 100 µM | > 100 µM | > 100 µM | > 100 µM | > 100 µM | > 100 µM | 36.1 µM | > 100 µM | > 100 µM |  |  |  |  |  |  |  |  |  | 
5 | C/C=C/C(=O)[O-].C/C=C/C(=O)[O-].N.N.N.N.[Co+3].[O-][Cl+3]([O-])([O-])[O-] | > 100 µM | > 100 µM | > 100 µM | > 100 µM | > 100 µM | > 100 µM | > 100 µM | > 100 µM | > 100 µM | > 100 µM | > 100 µM | > 100 µM | > 100 µM | > 100 µM | > 100 µM | > 100 µM | > 100 µM | 47.4 µM | > 100 µM | > 100 µM
6 | CCN(CC)CCN1c2nc3ccccc3cc2Sc2cc3ccccc3nc21 | 2.85 µM | 3.72 µM | 3.2 µM | 3.38 µM | 4.9 µM | 3.49 µM | 12.2 µM | 6.22 µM | 2.99 µM | 4.48 µM | 1.35 µM | 1.69 µM | 0.869 µM | 1.64 µM | 1.85 µM | 1.8 µM | 2.28 µM | 1.32 µM | 1.53 µM | 1.95 µM
7 | C=C1C(=O)O[C@H]2[C@H]1CC/C(COC(=O)/C=C\C(=O)NCc1ccc(Cn3c(=O)sn(CCI)c3=O)cc1)=C\CC[C@@]1(C)O[C@@H]21 | 3.69 µM | 27.8 µM | 4.6 µM | 19.7 µM | 3.24 µM | 5.04 µM | 10.8 µM | 18.5 µM | 3.75 µM | 20.2 µM | 2.06 µM | 13.9 µM | 2.05 µM | 6.25 µM | 1.76 µM | 2.23 µM | 3.15 µM | 4.24 µM | 1.92 µM | 7.63 µM
